In patent US10196436B2, “Inhibitors of the fibroblast growth factor receptor” (BLUEPRINT MEDICINES CORPORATION, priority 2012, dated 2019):

Key:
[1] = target: wild type FGFR-4 (Homo sapiens (Human), UniProt P22455); assay: FGFR-4 wild type assay at Km (Caliper electrophoretic mobility shift); format: biochemical; details: for IC50: 400 uM ATP, 90 minutes, 25 C, read-out: FGFR4 IC50; for Ratio FGFR1/FGFR4: [IC50 for FGFR1]/[IC50 for FGFR4]
Method: (§1) In order to assess the activity of chemical compounds against the relevant kinase of interest, the Caliper LifeSciences electrophoretic mobility shift technology platform is utilized. Fluorescently labeled substrate peptide is incubated in the presence dosed levels of compounds, a set concentration of kinase and of ATP, so that a reflective proportion of the peptide is phosphorylated. At the end of the reaction, the mix of phosphorylated (product) and non-phosphorylated (substrate) peptides are passed through the microfluidic system of the Caliper LabChip® EZ Reader II, under an applied potential difference. The presence of the phosphate group on the product peptide provides a difference in mass and charge between the product peptide and the substrate peptide, resulting in a separation of the substrate and product pools in the sample. As the pools pass the LEDS within the instrument, these pools are detected and resolved as separate peaks. The ratio between these peaks therefore reflects the activity of the chemical matter at that concentration in that well, under those conditions.
(§2) The reaction was stopped by the addition of 70 ul of Stop buffer (100 mM HEPES pH 7.5, 0.015% Brij 35, 35 mM EDTA and 0.2% of Coating Reagent 3 (Caliper Lifesciences)). The plate was then read on a Caliper LabChip® EZ Reader II (protocol settings: −1.9 psi, upstream voltage −700, downstream voltage −3000, post sample sip 35 s).

[2] = target: wild type FGFR-1 (Homo sapiens (Human), UniProt P11362); assay: FGFR-1 wild type assay at Km (Caliper electrophoretic mobility shift); format: biochemical; details: 400 uM ATP, 90 minutes, 25 C; read-out: FGFR1 IC50
Method: as §1
as §2, with “EZReader 2” for “LabChip® EZ Reader II”

Sequence of wild type FGFR-1 (P11362 22-822): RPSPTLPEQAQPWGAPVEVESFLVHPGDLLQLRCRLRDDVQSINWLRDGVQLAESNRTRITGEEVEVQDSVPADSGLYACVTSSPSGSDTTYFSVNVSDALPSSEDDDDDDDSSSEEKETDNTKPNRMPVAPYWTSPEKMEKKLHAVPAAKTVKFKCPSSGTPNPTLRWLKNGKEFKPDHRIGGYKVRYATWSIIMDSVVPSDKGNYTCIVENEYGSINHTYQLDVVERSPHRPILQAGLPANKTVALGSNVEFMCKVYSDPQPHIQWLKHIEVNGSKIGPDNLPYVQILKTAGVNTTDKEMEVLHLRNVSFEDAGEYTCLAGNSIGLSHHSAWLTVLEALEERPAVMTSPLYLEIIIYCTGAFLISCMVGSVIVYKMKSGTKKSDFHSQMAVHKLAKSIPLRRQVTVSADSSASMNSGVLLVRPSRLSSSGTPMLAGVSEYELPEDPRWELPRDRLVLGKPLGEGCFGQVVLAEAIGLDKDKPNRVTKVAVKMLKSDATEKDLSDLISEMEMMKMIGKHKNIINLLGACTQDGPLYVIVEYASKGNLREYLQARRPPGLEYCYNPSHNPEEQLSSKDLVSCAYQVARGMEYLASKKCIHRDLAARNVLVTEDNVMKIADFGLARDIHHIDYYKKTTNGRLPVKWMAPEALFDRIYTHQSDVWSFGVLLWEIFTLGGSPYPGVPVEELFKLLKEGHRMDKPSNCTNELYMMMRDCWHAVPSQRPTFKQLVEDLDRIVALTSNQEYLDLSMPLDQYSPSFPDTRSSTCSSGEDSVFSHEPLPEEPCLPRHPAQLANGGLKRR
Sequence of wild type FGFR-4 (P22455 22-802): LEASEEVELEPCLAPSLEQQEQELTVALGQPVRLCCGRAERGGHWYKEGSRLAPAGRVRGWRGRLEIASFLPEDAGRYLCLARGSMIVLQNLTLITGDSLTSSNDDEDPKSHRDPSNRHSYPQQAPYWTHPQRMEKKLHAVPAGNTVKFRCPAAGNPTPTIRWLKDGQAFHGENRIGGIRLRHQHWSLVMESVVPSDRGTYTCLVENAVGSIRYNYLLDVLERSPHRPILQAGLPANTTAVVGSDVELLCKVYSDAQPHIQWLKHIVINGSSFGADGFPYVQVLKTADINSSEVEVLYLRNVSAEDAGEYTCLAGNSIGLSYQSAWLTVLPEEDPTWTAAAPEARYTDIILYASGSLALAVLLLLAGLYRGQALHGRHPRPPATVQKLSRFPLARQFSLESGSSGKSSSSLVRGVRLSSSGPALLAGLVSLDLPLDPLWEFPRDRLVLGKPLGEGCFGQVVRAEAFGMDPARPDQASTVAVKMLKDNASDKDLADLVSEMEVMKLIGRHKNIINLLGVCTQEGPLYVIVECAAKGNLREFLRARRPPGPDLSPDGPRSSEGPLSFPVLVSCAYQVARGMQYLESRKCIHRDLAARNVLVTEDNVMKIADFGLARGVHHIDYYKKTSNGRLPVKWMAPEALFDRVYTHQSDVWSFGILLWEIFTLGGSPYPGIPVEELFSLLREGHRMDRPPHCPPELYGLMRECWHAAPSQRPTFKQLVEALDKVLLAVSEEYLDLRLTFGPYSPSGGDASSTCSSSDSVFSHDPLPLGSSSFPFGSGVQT

Row | Structure (SMILES) | IC50 [1] | Ratio FGFR1/FGFR4 [1] | IC50 [2]
1 | C=CC(=O)Nc1ccccc1Nc1nccc(N2CCCC(NS(=O)(=O)CCC)C2)n1 (stereo not shown) [COMPOUND 11, N-(2-((4-(3-(propylsulfonamido)piperidin-1-yl)pyrimidin-2-yl)amino)phenyl)acrylamide] |  |  | > 1000 nM
2 | C=CC(=O)Nc1cccc(C)c1Nc1ncc2cc(-c3c(Cl)c(OC)cc(OC)c3Cl)c(OC)cc2n1 [COMPOUND 42, N-(2-((6-(2,6-dichloro-3,5-dimethoxyphenyl)-7-methoxyquinazolin-2-yl)amino)-3-methylphenyl)acrylamide] | < 10 nM | F (the ratio of [IC50 for FGFR1]/[IC50 for FGFR4] is less than 10) | 
3 | C=CC(=O)N(C)c1ncc2cc(-c3c(Cl)c(OC)cc(OC)c3Cl)cnc2n1 [COMPOUND 8] | < 10 nM | E (the ratio is >10 and <50) | 
4 | C=CC(=O)Nc1cccc(F)c1Nc1ncc2cc(-c3c(Cl)c(OC)cc(OC)c3Cl)ccc2n1 [COMPOUND 51] | 10 to 100 nM | F (the ratio of [IC50 for FGFR1]/[IC50 for FGFR4] is less than 10) | > 1000 nM
5 | C=CC(=O)N(C)c1ncc2cc(-c3c(Cl)c(OC)cc(OC)c3Cl)c(=O)n(C)c2n1 [COMPOUND 12] | < 10 nM | D (the ratio is ≥50 and <100) | 
6 | C=CC(=O)Nc1ccccc1Nc1ncc2cc(-c3cc(OC)cc(OC)c3)c(=O)n(C)c2n1 [COMPOUND 16] |  |  | > 1000 nM
7 | C=CC(=O)Nc1cccc(C)c1Nc1ncc2cc(-c3cc(C(N)=O)ccc3F)ccc2n1 [COMPOUND 9] |  | D (the ratio is ≥50 and <100) | > 1000 nM
8 | C=CC(=O)Nc1ccccc1Nc1cc2nc(NC(=O)NC(C)(C)C)c(-c3cc(OC)cc(OC)c3)cc2cn1 [COMPOUND 44] |  | E (the ratio is >10 and <50) | > 1000 nM
9 | C=CC(=O)Nc1cccc(Cl)c1Nc1ncc2cc(-c3cc(C(N)=O)ccc3C)ccc2n1 [COMPOUND 17] |  | B (the ratio is ≥200 and <500) | > 1000 nM
10 | C=CC(=O)Nc1cccc(C)c1Nc1ncc2cc(-c3c(Cl)cccc3Cl)c(=O)n(C)c2n1 [COMPOUND 22] |  | B (the ratio is ≥200 and <500) | > 1000 nM
11 | C=CC(=O)N(C)c1ncc2cc(-c3c(Cl)cccc3Cl)ccc2n1 [COMPOUND 2] |  | D (the ratio is ≥50 and <100) | > 1000 nM
12 | C=CC(=O)Nc1ccccc1-c1ccn2c(-c3cccc(NC(=O)NCC(F)(F)F)c3)cnc2c1 [COMPOUND 21, N-(2-(3-(3-(3-(2,2,2-trifluoroethyl)ureido)phenyl)imidazo[1,2-a]pyridin-7-yl)phenyl)acrylamide] |  |  | > 1000 nM
13 | C=CC(=O)Nc1ccccc1Nc1ncc(Cl)c(N2CCN(C(=O)Nc3cccc(C(F)(F)F)c3)CC2)n1 [COMPOUND 50, 4-(2-((2-acrylamidophenyl)amino)-5-chloropyrimidin-4-yl)-N-(3-(trifluoromethyl)phenyl)piperazine-1-carboxamide] |  |  | > 1000 nM
14 | C=CC(=O)N(C)c1ncc2cc(-c3cc(OC)cc(OC)c3)ccc2n1 [COMPOUND 1] | 100 to 1000 nM | C (the ratio is ≥100 and <200) | > 1000 nM
15 | C=CC(=O)N(C)c1ncc2c(n1)N(C)C(=O)N(c1cc(OC)cc(OC)c1)C2 [COMPOUND 5] |  | A (the ratio is >500) | > 1000 nM
16 | C=CC(=O)Nc1ccccc1Nc1cc2c(cn1)cc(-c1cc(OC)cc(OC)c1)c(=O)n2C [COMPOUND 15] |  | B (the ratio is ≥200 and <500) | > 1000 nM
17 | C=CC(=O)Nc1cc(C(=O)NC2CCN(C)CC2)ccc1Nc1ncc(C)c(N2CCN(C(=O)Nc3ccc(C#N)cc3)CC2)n1 [COMPOUND 54, 4-(2-((2-acrylamido-4-((1-methylpiperidin-4-yl)carbamoyl)phenyl)amino)-5-methylpyrimidin-4-yl)-N-(4-cyanophenyl)piperazine-1-carboxamide] |  |  | > 1000 nM
18 | C=CC(=O)Nc1cccc(C)c1Nc1ncc2cc(-c3cc(OC)cc(OC)c3)c(=O)n(C)c2n1 [COMPOUND 19] |  |  | > 1000 nM
19 | C=CC(=O)Nc1ccccc1Nc1ncc2cc(-c3c(Cl)c(OC)cc(OC)c3Cl)c(=O)n(C)c2c1C [COMPOUND 40, N-(2-((3-(2,6-dichloro-3,5-dimethoxyphenyl)-1,8-dimethyl-2-oxo-1,2-dihydro-1,6-naphthyridin-7-yl)amino)phenyl)acrylamide] |  |  | > 1000 nM
20 | C=CC(=O)N(C)c1ncc2c(n1)N(C)C(=O)N(c1c(Cl)c(OC)cc(OC)c1Cl)C2 [COMPOUND 14] |  | F (the ratio of [IC50 for FGFR1]/[IC50 for FGFR4] is less than 10) | 

The remaining lines, values ahead:

Row | IC50 [1] | Ratio FGFR1/FGFR4 [1] | IC50 [2] | Structure (SMILES)
21 | < 10 nM | C (the ratio is ≥100 and <200) | > 1000 nM | C=CC(=O)Nc1cc(F)cc(C)c1Nc1ncc2cc(-c3c(Cl)c(OC)cc(OC)c3Cl)ccc2n1 [COMPOUND 32]
22 |  | E (the ratio is >10 and <50) | > 1000 nM | C=CC(=O)Nc1cccc(C)c1Nc1ncc2cc(-c3c(Cl)ccc(OC)c3F)ccc2n1 [COMPOUND 17A]
23 |  |  | > 1000 nM | C=CC(=O)Nc1cc(C)cc(C)c1Nc1ncc2cc(-c3c(Cl)c(OC)cc(OC)c3Cl)ccc2n1 [COMPOUND 28]
24 |  | A (the ratio is >500) | > 1000 nM | C=CC(=O)Nc1cc(Cl)cc(C)c1Nc1ncc2cc(-c3c(Cl)c(OC)cc(OC)c3Cl)ccc2n1 [COMPOUND 49]
25 |  | D (the ratio is ≥50 and <100) | > 1000 nM | C=CC(=O)Nc1cccc(C)c1Nc1ncc2cc(-c3c(Cl)cccc3Cl)ccc2n1 [COMPOUND 13]
26 |  | B (the ratio is ≥200 and <500) | > 1000 nM | C=CC(=O)Nc1cc(F)cc(F)c1Nc1ncc2cc(-c3c(Cl)c(OC)cc(OC)c3Cl)ccc2n1 [COMPOUND 36]
27 | > 1000 nM | E (the ratio is >10 and <50) | > 1000 nM | C=CC(=O)Nc1cccc(C)c1Nc1ncc2cc(-c3cc(OC)cc(OC)c3)cnc2n1 [COMPOUND 10, N-(2-((6-(3,5-dimethoxyphenyl)pyrido[2,3-d]pyrimidin-2-yl)amino)-3-methylphenyl)acrylamide]
28 | < 10 nM | B (the ratio is ≥200 and <500) |  | C=CC(=O)Nc1cccc(F)c1Nc1ncc2cc(-c3c(Cl)c(OC)cc(OC)c3Cl)cc(OC)c2n1 [COMPOUND 47]
29 | < 10 nM | E (the ratio is >10 and <50) |  | C=CC(=O)Nc1cccc(C)c1Nc1ncc2c(n1)N(C)C(=O)N(c1c(Cl)c(OC)cc(OC)c1Cl)C2 [COMPOUND 48, N-(2-((6-(2,6-dichloro-3,5-dimethoxyphenyl)-8-methyl-7-oxo-5,6,7,8-tetrahydropyrimido[4,5-d]pyrimidin-2-yl)amino)-3-methylphenyl)acrylamide]
30 |  |  | > 1000 nM | C=CC(=O)Nc1cccc(C)c1Nc1ncc(C#Cc2cc(OC)cc(OC)c2)cn1 [COMPOUND 6, N-(2-((5-((3,5-dimethoxyphenyl)ethynyl)pyrimidin-2-yl)amino)-3-methylphenyl) acrylamide]
31 |  | E (the ratio is >10 and <50) |  | C=CS(=O)(=O)Nc1cccc(C)c1Nc1ncc2cc(-c3c(Cl)c(OC)cc(OC)c3Cl)ccc2n1 [COMPOUND 49A]
32 |  |  | > 1000 nM | C=CC(=O)Nc1cccc(C)c1Nc1ncc(C#Cc2c(Cl)c(OC)cc(OC)c2Cl)cn1 [COMPOUND 24, N-(2-((5-((2,6-dichloro-3,5-dimethoxyphenyl)ethynyl)pyrimidin-2-yl)amino)-3-methylphenyl)acrylamide]
33 | < 10 nM | C (the ratio is ≥100 and <200) |  | C=CC(=O)Nc1ccc(F)c(F)c1Nc1ncc2cc(-c3c(Cl)c(OC)cc(OC)c3Cl)ccc2n1 [COMPOUND 37]
